Source: patent US9359378B2, “Substituted oxazolo[3,4-a]pyrazines as pharmaceutcals” (BIOLAB SANUS FARMACÊUTICA LTDA., priority 2014, dated 2016)

Legend:
Assay type in all cases: biochemical
PDE1B = molecular target: T1, PDE1B (Homo sapiens, UniProt Q01064); assay: PDE1B enzyme inhibition (HTRF, cGMP substrate); conditions: human recombinant enzyme (Sf9); FIGS. 14 and 15; test concentration not given
T1 construct: host or cells: Sf9
Description: The effects of BL-230 and BL-236 compounds on the activity of PDE1B human enzymes were quantified by measuring the production of guanosine 5′-monophosphate (5′GMP) from cyclic guanosine monophosphate (cGMP), using human recombinant enzyme expressed in Sf9 cells, and the detection method was by using HTRF® (Homogeneous Time Resolved Fluorescence Technology).
The test compound, the reference compound or the water (control) were mixed with 0.07 U from the enzyme PDE1B in a buffer containing 44.4 mM Tris-hydroxymethyl aminomethane hydrochloride (Tris-HCl), 5.28 mM magnesium chloride (MgCl2), 0.88 mM calcium chloride (CaCl2), 2.64 mM dithiothreitol (DTT) and 0.198 U of calmodulin and 0.044% polysorbate 20 (Tween® 20) (pH 7.8). […] The fluorescence acceptor (Dye2 labeled cGMP) and fluorescence donor (anti-cGMP antibody labeled with europium cryptate) were added in the presence of 1 mM 3-isobutyl-1-methylxanthine (IBMX). After 60 minutes, the transfer of fluorescence corresponding to the amount of residual cGMP was measured at λex=337 nm, λem=620 nm and λem=665 nm using a microplate reader (RubyStar, BMG). The enzyme activity was determined by the signal division measured at 665 nm, by the measured signal at 620 nm (right). The results were expressed as a inhibition percentage of the control enzyme activity. […]

PDE4A1A = molecular target: T2, PDE4A1A (Homo sapiens, UniProt P27815); assay: PDE4A1A enzyme inhibition (HTRF, cAMP substrate); conditions: human recombinant enzyme (Sf9); FIGS. 14 and 15; test concentration not given
T2 construct: host or cells: Sf9
From the text: (§1) The effects of the BL-230 and BL-236 compounds on the activity of the human enzymes PDE2A1, PDE3A, PDE4A1A, PDE4B1, PDE7A, PDE8A1, and PDE10A2 and PDE11A4 were quantified by measuring the production of adenosine 5′-monophosphate (5′AMP) from cyclic adenosine monophosphate (cAMP), with human recombinant enzyme expressed in Sf9 cells and the detection method was by using HTRF®.
(§2) The test compound, the reference compound or water (control) were mixed with the enzyme (the enzymes and their amounts used are described in Table 1) in a buffer containing 44.4 mM Tris-HCl, 5.28 mM MgCl2, 2.64 mM DTT and 0.044% Tween® 20 (pH 7.8). Then, the reaction was initiated by the addition of 40 nM of cAMP substrate and the mixture was incubated for 30 minutes at room temperature. For basal control measurements, the enzyme was omitted from the reaction mixture. The fluorescence acceptor (Dye2 labeled cAMP) and fluorescence donor (anti-cAMP antibody labeled with europium cryptate) were added in the presence of 1 mM IBMX. After 60 minutes, the fluorescence corresponding to the amount of transfer residual cAMP was measured at λex=337 nm, λem=620 nm and λem=665 nm using a microplate reader (RubyStar, BMG). The enzyme activity was determined by the signal division measured at 665 nm, by the measured signal at 620 nm (right). The results were expressed as a inhibition percentage of the control enzyme activity. […]

PDE4B1 = molecular target: T3, PDE4B1 (Homo sapiens, UniProt Q07343); assay: PDE4B1 enzyme inhibition (HTRF, cAMP substrate); conditions: human recombinant enzyme (Sf9); FIGS. 14 and 15; test concentration not given
T3 construct: host or cells: Sf9
From the text: as §1, §2

PDE8A1 = molecular target: T4, PDE8A1 (Homo sapiens, UniProt O60658); assay: PDE8A1 enzyme inhibition (HTRF, cAMP substrate); conditions: human recombinant enzyme (Sf9); FIGS. 14 and 15; test concentration not given
T4 construct: host or cells: Sf9
From the text: as §1, §2

PDE5 = molecular target: T5, PDE5 (Homo sapiens, UniProt O76074); assay: PDE5 enzyme inhibition (SPA, enzyme isolated from human platelets); conditions: FIGS. 14 and 15, test concentration not given
T5 construct: using an enzyme isolated from Cerep human platelets; tissue Cerep; host or cells: human platelets
Description: The effects of compounds BL-230 and BL-236 on human PDE5 enzyme activity was quantified by measuring the production of 5′GMP from cGMP using an enzyme isolated from Cerep human platelets and the utilized detection method was scintillation proximity assay (SPA).
The test compound, the reference compound or water (control) were added to a buffer containing 40 mM Tris-HCl (pH 7.8), 3 mM MgCl2, 1.4 mM DTT, 0.21% BSA, 200 mM ammonium chloride (NH4Cl), 1 μM cGMP and 0.1 μCi of [^3H]cGMP. Then the reaction was started by adding the enzyme (final amount depending on the efficiency of the isolation) and the mixture was incubated for 60 minutes at 22° C. For basal control measurements, the enzyme was omitted from the reaction mixture. Following this, the SPA incubation beads were added. After 20 min at 22° C. under agitation, the amount of [^3H] 5′GMP was quantified with a scintillation counter (Topcount, Packard). The results were expressed as an inhibition percentage of the control enzyme activity. The standard inhibitory reference compound dipyridamole was used, which was tested in each experiment at several concentrations to obtain an inhibition curve from which its IC50 value was calculated. […]

T4 sequence (O60658 whole entry): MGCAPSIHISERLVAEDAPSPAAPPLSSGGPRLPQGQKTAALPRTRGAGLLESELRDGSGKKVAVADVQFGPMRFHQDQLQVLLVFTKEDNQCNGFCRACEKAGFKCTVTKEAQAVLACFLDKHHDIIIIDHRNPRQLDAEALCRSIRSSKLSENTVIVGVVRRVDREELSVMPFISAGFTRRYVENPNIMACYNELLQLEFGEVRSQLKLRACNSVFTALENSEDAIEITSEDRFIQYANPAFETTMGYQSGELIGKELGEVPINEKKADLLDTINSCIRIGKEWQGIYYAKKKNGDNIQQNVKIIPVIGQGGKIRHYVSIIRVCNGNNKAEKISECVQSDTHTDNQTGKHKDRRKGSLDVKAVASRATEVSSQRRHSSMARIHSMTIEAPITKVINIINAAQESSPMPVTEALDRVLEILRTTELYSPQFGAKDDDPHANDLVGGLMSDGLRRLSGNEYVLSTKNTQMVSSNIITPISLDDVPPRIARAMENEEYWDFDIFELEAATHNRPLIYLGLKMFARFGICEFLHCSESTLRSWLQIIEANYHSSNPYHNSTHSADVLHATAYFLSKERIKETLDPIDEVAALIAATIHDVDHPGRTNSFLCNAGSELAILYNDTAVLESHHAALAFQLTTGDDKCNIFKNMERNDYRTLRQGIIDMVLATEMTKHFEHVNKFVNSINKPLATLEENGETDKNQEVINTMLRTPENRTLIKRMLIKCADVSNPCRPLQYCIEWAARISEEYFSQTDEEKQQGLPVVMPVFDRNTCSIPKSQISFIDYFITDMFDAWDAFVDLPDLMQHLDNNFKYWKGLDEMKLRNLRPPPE
T2 sequence (P27815 1-647 isoform P27815-4): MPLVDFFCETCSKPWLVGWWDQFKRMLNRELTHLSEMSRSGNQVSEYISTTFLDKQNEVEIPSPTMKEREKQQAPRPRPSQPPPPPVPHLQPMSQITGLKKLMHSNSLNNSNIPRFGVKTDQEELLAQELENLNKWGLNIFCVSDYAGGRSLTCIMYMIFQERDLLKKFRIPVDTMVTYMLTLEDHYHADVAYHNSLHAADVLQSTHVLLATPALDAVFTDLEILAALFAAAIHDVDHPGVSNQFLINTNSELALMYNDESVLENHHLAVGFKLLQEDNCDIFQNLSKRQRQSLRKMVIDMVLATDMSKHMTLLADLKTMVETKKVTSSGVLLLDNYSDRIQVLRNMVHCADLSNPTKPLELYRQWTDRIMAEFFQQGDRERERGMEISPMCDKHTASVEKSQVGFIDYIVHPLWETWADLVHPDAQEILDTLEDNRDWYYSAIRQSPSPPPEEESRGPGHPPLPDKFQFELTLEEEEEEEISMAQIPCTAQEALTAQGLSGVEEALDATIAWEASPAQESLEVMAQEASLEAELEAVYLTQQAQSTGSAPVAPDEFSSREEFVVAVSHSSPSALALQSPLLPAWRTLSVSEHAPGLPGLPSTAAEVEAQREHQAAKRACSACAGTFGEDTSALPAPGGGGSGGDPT
T3 sequence (Q07343 whole entry): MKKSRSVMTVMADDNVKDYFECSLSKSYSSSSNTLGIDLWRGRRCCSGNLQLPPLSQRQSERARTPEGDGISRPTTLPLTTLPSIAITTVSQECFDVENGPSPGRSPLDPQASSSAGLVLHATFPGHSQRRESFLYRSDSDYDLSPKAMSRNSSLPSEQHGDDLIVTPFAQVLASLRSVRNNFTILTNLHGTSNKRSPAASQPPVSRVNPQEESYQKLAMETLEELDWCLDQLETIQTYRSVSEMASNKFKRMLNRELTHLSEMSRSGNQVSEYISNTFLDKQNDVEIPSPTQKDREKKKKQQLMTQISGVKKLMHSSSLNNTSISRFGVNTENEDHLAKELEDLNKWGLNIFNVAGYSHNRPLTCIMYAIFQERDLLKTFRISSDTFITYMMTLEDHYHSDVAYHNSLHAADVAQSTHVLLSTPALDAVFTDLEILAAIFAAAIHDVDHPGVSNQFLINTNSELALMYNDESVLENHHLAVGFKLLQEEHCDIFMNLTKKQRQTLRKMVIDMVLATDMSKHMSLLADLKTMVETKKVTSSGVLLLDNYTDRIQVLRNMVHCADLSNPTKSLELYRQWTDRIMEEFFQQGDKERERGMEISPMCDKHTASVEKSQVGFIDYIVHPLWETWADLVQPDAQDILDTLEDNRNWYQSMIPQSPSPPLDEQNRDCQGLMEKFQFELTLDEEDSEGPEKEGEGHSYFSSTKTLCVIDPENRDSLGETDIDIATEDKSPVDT

inhibition of PDE1B enzyme activity (PDE1B) | inhibition of PDE4A1A enzyme activity (PDE4A1A) | inhibition of PDE4B1 enzyme activity (PDE4B1) | inhibition of PDE8A1 enzyme activity (PDE8A1) | inhibition of PDE5 enzyme activity (PDE5) [%] | SMILES
did not inhibit | did not inhibit | did not inhibit | did not inhibit | 90 | O=C1C2=C(c3c[nH]c4ccccc34)OC(c3ccc4c(c3)OCO4)N2C(=O)CN1CCO (stereo not shown) [BL-230, 3-(benzo[d][1,3]dioxol-5yl)-7-(2-hydroxyethyl)-1-(1H-indol-3-yl)-6,7-dihydro-3H-oxazolo[3,4-a]pyrazine-5,8-dione]
did not inhibit | did not inhibit | did not inhibit | did not inhibit | 86 | C[C@@H](CO)N1CC(=O)N2C(=C(c3c[nH]c4ccccc34)OC2c2ccc3c(c2)OCO3)C1=O (stereo partly drawn) [BL-236, 3-(benzo[d][1,3]dioxol-5yl)-7-((S)1-hydroxypropan-2yl)-1-(1H-indol-3-yl)-6,7-dihydro-3H-oxazolo[3,4-a]pyrazine-5,8-dione]
